In one experiment the target is T1, JAK2(h) (Homo sapiens, UniProt O60674).
T1 construct: purchased Eurofins, UK
Put plainly: In vitro activity assay of JAK2 kinase (radiometric, [γ-33P]-ATP). To be noted: recombinant human JAK2, 40 min at room temperature. In kind it is biochemical. Here is the method: Recombinant human JAK1, JAK2, JAK3 and Tyk2 […], and main instruments and reagents were all provided by Eurofins, UK.
Dilution of JAK2, JAK3 and TYK2: 20 mM 3-(N-morpholino)propanesulfonic acid (MOPS), 1 mM EDTA, 0.01% Brij-35.5% glycerol, 0.1% β-mercaptoethanol, and 1 mg/mL BSA; dilution of JAK1: 20 mM TRIS, 0.2 mM EDTA, 0.1% β-mercaptoethanol, and 0.01% Brij-35.5% glycerol. All compounds were prepared as 100% DMSO solutions, and the concentration was brought to 50 times the final assay concentration. A test compound was diluted with a 3-fold gradient, with a total of 9 final concentrations ranging from 10 μM to […]. The DMSO content in the assay reaction was 2%. The working stock solution of the compound was added into the assay wells as a first component of the reaction, and the remaining components were then added according to the protocol detailed for the assay below.
JAK2(h) was incubated with 8 mM MOPS pH 7.0, 0.2 mM EDTA, 100 μM […] (SEQ ID NO: 2), 10 mM magnesium acetate and [γ-^33P]-ATP (the activity and concentration were tailored as required). The reaction was started by adding a Mg/ATP mixture, and terminated by adding 0.5% phosphoric acid after 40 min of incubation at room temperature. 10 μL of the reactant was then dotted on a P30 filter pad, washed three times with 0.425% phosphoric acid and once with methanol within 4 minutes, and dried, and scintillation counting was performed.
The IC50 results were obtained by analysis using XLFITS (formula 205) of IDBS company and detailed in Table 1.

Experiment [1] concerns adjuvant-induced arthritis (AIA). In words: In vivo efficacy study of adjuvant-induced arthritis (AIA) in rats. The settings on record: for Inhibition rate of area under clinical score curve, AUC (%): two weeks, rat AIA. The arrangement: species or system female Lewis rats. Here is the method:
Experimental procedures: the compounds of the present application were tested for their therapeutic effect on arthritis using a rat adjuvant arthritis model. Female Lewis rats weighing 160-180 g were anesthetized with isoflurane and injected with 0.1 mL of Mycobacterium tuberculosis suspension subcutaneously in the left hind paw. 13 days after the modeling, the rats were divided into groups and given corresponding test compounds. For example, the female Lewis rats were orally administered different doses (see Table 3-2 for specific doses) of a solution of test compound 1A in a mixed solvent [5% DMSO, 95% (12% SBE-β-CD)] twice a day (10 test animals in each dose group). During two consecutive weeks of administration, the states of the rats were observed, and the foot volume swellings were recorded and scored.

Experiment [2] concerns collagen-induced arthritis (CIA). In words: In vivo efficacy study of collagen-induced arthritis (CIA) in rats. More on the design: species or system Lewis rats. Here is the method:
[table] The compounds of the present application were tested for their therapeutic effect on arthritis using a rat collagen-induced arthritis model. Lewis rats were immunized. The day of the first immunization was recorded as day 0, and the subsequent days were recorded in order. The Lewis rats were anesthetized with isoflurane and injected with 50 μL of prepared collagen emulsion (containing 200 μg of CII) subcutaneously in the tail (2-3 cm away from the base of the tail). On day 21, the same volume of the collagen emulsion was injected in the tail in the same manner. Rats in the normal group were not immunized. On day 27 of the modeling, the rats were divided into groups and administered corresponding test compounds. For example, the female Lewis rats were orally administered different doses (see Table 4-1 for specific doses) of a solution of test compound 4 in a mixed solvent [0.5% HPMC E5/0.5% PVP K30/0.2% SLS in water] twice a day (8 test animals in each dose group). During 14 consecutive days of administration, the states of the rats were observed, and the foot volume swellings were recorded and scored.

Broadly, the IC50 is the concentration needed to halve the response being measured.

T1 sequence (O60674 whole entry): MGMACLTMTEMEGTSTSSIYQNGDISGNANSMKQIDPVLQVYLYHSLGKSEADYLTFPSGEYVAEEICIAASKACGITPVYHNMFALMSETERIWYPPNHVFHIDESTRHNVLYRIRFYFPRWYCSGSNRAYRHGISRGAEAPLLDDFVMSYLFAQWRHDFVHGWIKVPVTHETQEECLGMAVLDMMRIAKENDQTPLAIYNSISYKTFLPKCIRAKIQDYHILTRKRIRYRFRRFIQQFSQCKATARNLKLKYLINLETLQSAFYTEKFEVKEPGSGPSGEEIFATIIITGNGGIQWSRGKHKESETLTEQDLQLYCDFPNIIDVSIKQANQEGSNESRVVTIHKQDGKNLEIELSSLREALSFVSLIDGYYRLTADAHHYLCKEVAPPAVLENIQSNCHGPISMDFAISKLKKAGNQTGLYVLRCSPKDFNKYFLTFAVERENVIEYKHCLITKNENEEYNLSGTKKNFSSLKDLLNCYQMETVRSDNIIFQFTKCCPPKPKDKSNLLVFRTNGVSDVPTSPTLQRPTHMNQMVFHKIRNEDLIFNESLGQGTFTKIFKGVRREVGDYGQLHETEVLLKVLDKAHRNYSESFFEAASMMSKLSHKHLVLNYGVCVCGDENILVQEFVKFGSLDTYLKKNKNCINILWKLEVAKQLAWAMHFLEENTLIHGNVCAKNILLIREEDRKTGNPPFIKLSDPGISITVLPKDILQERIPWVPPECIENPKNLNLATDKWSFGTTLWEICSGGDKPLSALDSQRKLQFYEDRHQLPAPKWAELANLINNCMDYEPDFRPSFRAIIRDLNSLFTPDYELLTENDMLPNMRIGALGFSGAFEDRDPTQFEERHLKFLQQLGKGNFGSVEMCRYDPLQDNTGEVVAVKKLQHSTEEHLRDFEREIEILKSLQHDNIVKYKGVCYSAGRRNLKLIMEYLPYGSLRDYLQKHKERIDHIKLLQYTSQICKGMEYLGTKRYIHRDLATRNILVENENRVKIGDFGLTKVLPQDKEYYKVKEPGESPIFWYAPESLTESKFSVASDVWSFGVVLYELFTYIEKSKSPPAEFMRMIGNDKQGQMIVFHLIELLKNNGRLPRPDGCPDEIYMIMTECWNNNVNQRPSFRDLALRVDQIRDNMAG

With `N#Cc1cc2n(n1)CC(n1cnc3cnc4[nH]ccc4c31)CC2` (single isomer, unassigned) [Compound 1A], on JAK2(h), the 50% inhibitory concentration (IC50) was 0.027 µM. Moreover, the entries for the “Inhibition rate of area under clinical score curve, AUC (%)” value in experiment [1] (3 mg/kg oral twice a day) and in experiment [1] (10 mg/kg oral twice a day) were 49.8% and 60.3%, respectively. The “Mean arthritis clinical score, peak” value in experiment [1] (10 mg/kg group, day 13 (day of grouping, start of dosing)) turned out to be 5.8. For the same compound, the “Mean arthritis clinical score at the experimental endpoint” value in experiment [1] (10 mg/kg group, day 27) is on record as 1.3. For the same compound, the “Effect on the downward trend of the weight in animals caused by the disease attack” value in experiment [1] (3 and 10 mg/kg groups, significant difference from solvent control from day 20) is “significant relieving effect on the downward trend of the weight”. The “Effect on increase in arthritis clinical score and foot volume” value in experiment [1] (3 and 10 mg/kg oral twice a day, dose-dependent) is “inhibited the increase in arthritis clinical score and foot volume”.

Regarding `COc1nc2cnc3[nH]ccc3c2n1[C@@H]1CCc2cc(C#N)nn2C1` [Compound 4], at JAK2(h), the IC50 turned out to be 0.007 µM. Also, in experiment [2] (1 mg/kg oral BID, rat CIA), the “Clinical score (on day 14 of administration) Mean ± SEM” value was determined as 0.38 ± 0.16 and the Foot volume (mL, on day 14 of administration) Mean ± SEM worked out at 1.32 ± 0.04 mL. Besides, the Body weight recovery result in experiment [2] (3 mg/kg BID, end of administration at day 14) is reported as “recovers to the level in the normal group”. Also, the Foot volume (mL, on day 14 of administration) Mean ± SEM in experiment [2] (3 mg/kg oral BID, rat CIA) amounted to 1.28 mL. The “Degree of the foot volume swelling” value in experiment [2] (BID at 1 and 3 mg/kg) is reported as “reduced in a dose-dependent manner”. Also, in experiment [2] (BID at 1 and 3 mg/kg, significant difference from solvent control), the “Effect on clinical scores of the arthritic rats” value is recorded as “reduces the clinical scores of the arthritic rats in a dose-dependent manner”.

(Values after US20230017539A1, “TRI-HETEROCYCLIC COMPOUND AS JAK INHIBITOR, AND USE THEREOF” (CHIA TAI TIANQING PHARMACEUTICAL GROUP CO., LTD., priority 2019, published 2023).)
